Experimental data reported in US20090317373A1, “Inhibition of the Anti-FVIII Immune Response” (Institut National De La Sante Et De La Recherche Medicale, priority 2005, published 2009).

Legend:
binding of FVIII to VWF = binding of FVIII to VWF (Homo sapiens, UniProt P00451); assay: ELISA for binding of FVIII to VWF; conditions: FVIII preincubated with mannan (0.01 to 4 mg/ml); FIG. 5b
Method: ELISA plates (Nunc, Roskilde, Denmark) were coated with VWF (VWF, Willefectin, LFB, Les Ulis, France) at 2 μg/ml per well in PBS (pH 7.4) at 37° C. for 1 hour. The plates were saturated with PBS containing 1% skimmed milk and 0.1% Tween 20 for 1 hour at 37° C. FVIII (0.3 μg/ml) was preincubated by itself or with mannan (0.01 to 4 mg/ml) or with BO2C11 (human monoclonal anti-FVIII IgG) (0.05 to 40 μg/ml) in a blocking buffer for 1 hour at 37° C. and then added to the wells coated with VWF and incubated for 1 hour at 37° C. A mouse monoclonal anti-FVIII IgG (mAb6) (3 μg/ml) was incubated at 37° C. for 1 hour. […] No binding of FVIII was observed on the wells which had not been coated.

[1] = target: T1, CTLD(4-7)-Fc (construct of the mannose receptor) (Mus musculus, UniProt Q61830); assay: ELISA binding of mannose receptor construct CTLD(4-7)-Fc to coated ligands; conditions: ELISA plates coated with ligand; FIG. 3c
T1 construct: gift of Dr Luisa Martinez-Pomares, University of Nottingham
T1 sequence (Q61830 with tags, fused parts or gaps limits assumed): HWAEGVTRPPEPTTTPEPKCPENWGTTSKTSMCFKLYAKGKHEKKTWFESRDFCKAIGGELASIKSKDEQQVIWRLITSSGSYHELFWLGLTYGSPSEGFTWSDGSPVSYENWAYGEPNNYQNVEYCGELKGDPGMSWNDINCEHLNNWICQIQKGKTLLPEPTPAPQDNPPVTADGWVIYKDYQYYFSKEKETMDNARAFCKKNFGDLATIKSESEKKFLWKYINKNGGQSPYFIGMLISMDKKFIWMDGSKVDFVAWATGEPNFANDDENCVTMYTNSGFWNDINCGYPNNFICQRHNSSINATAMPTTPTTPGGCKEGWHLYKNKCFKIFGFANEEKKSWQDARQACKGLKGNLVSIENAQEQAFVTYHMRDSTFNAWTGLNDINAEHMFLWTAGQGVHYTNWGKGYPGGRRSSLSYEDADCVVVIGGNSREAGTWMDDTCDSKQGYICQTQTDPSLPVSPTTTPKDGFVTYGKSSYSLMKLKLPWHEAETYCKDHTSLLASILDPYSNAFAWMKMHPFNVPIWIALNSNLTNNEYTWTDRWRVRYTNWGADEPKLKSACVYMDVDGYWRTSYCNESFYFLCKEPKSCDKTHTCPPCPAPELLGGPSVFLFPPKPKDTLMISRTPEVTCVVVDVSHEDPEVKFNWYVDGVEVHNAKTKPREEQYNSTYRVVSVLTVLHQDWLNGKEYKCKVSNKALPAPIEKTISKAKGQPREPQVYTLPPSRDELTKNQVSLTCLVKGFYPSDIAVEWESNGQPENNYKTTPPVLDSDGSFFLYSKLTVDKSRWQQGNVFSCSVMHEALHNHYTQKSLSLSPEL
Method: Constructs of the mannose receptor, CTLD(4-7)-FC and CR-FNII-CTLD(1-3)-CR-Fc, were kindly donated by Dr Luisa Martinez-Pomares, School of Molecular Medical Sciences, Queen's Medical Centre, University of Nottingham, UK. The binding of the constructs to whole recombinant human FVIII and to B domain-deleted recombinant human FVIII was tested either directly by measuring the binding to ELISA plates coated with ligands (mannan was used as a positive control) or indirectly by inhibition tests. The ELISA plates (Nunc; MAXISORP) were coated overnight with dilution series of the FVIII forms (starting at 50 μg/ml) in 154 mM NaCl. TTBS buffer (Tris-HCl 10 mM, pH 7.5, Ca^2+ 10 mM, NaCl 154 mM and 0.05% Tween-20) was used for all the washings. The non-reactive sites were blocked by TBS buffer (TTBS without Tween-20) containing 3% BSA. The plates were then incubated with 2 or 10 μg/ml of the constructs for 2 h at room temperature in TTBS buffer containing 3% BSA. The binding of the MR constructs was detected using a mouse antibody specific for the Fc part of human IgG conjugated to HRP (clone JDC-10, Southern Biotechnology Associates, Inc. AL, USA). […] The absorbance was measured at 492 nm. For the inhibition tests, the plates were coated with each form of FVIII (5.56 μg/ml). […] The absorbance was measured as described above. […]

[2] = tested on: D9E9 (T cell clone specific for FVIII); assay: In vitro activation of FVIII-specific T cell clone D9E9 (IFN-gamma production); type: cell-based, human
Method: After washing, the DCs of Example 1 were resuspended in DMEM:F12 (1:1) medium containing 10% FCS and 10,000 DCs were introduced into each well of a 96-well cell culture plate with a round base. After incubation with mannan (1 mg/ml) in each well for 30 min, the DCs were cultured with 5,000 D9E9 (T cell clone specific for FVIII) in DMEM:F12 (1:1) medium containing 10% FCS and 20 U/ml of rhIL-2 with various doses of whole FVIII or FVIII-BDD (10, 8, 6, 4, 2 μg/ml) for 20 hours at 37° C. Like the D9E9 cells, the LE2E9 and BO2C11 lines of B cells transformed by EBV were cultured in the presence of 10 μg/ml of whole FVIII or FVIII-BDD. The control conditions were maintained in the absence of FVIII, D9E9 or DCs. As a negative control, hrFIX (Benefix, Baxter) was incubated with the cells at isomolar concentrations of FVIII. The supernatants were harvested at the end of the incubation period and tested for their production of IFNγ using the human IFN-γ Duo Set (DY285, R&D Systems) in accordance with the manufacturer's instructions.

autologous CD4+ T cells = assay: In vitro proliferation of autologous CD4+ T cells (tritiated thymidine); type: cell-based, human; conditions: DCs incubated with mannan (1 mg/ml) before FVIII; FIG. 4a
Method: The DCs of Example 1 were incubated with mannan (1 mg/ml) for 30 min at 37° C. FVIII dialyzed against RPMI 1640 medium (Kogenate, Bayer) was added (40 μg/ml, 0.143 μM) for 2 hours. The cells were then washed and incubated with LPS (1 μg/0.5 million cells) in complete medium for 48 hours. The cells were then washed and cultured (RPMI 1640 medium, supplemented with 10% male human AB serum, in 96-well cell culture plates with a round base with 200 μl per well) with autologous CD4+ T cells obtained from the PBMC of the corresponding donor using the MACS cell isolation kit (Miltenyi Biotech, Bergisch Gladbach, Germany). The number of CD4+ T cells was kept constant in each well (100,000 cells/well), while the number of DCs varied (5,000, 10,000 and 15,000 DCs in triplicate), giving a T:DC cell ratio of 20:1, 10:1, 6.6:1.
After culture for 4 days, 0.5 μCi of tritiated thymidine was added to each well. The cells were harvested after 16 hours and the radioactivity incorporated was counted.

[3] = tested on: DCs according to Example 1; assay: Internalization of demannosylated FVIII-BDD-FITC by DCs (FACS); type: cell-based, human
Method: Finally, the inhibition of the internalization of demannosylated FVIII-BDD labelled with FITC was measured. FVIII-BDD conjugated to FITC and treated with EndoF1 (0.143 μM) or untreated is incubated with DCs according to Example 1 (4×10^5 cells/well of 100 μl) in X-VIVO medium without serum at 37° C. or at 4° C. Beforehand, the cells were preincubated, where appropriate, with mannan (1 mg/ml) for 30 min at 37° C. After incubation for 2 hours, the cells are washed and the mean intensities (mfi) are measured by FACS. The internalization of FVIII-BDD is expressed with respect to the calculated mfi in the presence of untreated FVIII alone (cf. FIG. 8).

Sequence of binding of FVIII to VWF (P00451 20-1667 limits assumed): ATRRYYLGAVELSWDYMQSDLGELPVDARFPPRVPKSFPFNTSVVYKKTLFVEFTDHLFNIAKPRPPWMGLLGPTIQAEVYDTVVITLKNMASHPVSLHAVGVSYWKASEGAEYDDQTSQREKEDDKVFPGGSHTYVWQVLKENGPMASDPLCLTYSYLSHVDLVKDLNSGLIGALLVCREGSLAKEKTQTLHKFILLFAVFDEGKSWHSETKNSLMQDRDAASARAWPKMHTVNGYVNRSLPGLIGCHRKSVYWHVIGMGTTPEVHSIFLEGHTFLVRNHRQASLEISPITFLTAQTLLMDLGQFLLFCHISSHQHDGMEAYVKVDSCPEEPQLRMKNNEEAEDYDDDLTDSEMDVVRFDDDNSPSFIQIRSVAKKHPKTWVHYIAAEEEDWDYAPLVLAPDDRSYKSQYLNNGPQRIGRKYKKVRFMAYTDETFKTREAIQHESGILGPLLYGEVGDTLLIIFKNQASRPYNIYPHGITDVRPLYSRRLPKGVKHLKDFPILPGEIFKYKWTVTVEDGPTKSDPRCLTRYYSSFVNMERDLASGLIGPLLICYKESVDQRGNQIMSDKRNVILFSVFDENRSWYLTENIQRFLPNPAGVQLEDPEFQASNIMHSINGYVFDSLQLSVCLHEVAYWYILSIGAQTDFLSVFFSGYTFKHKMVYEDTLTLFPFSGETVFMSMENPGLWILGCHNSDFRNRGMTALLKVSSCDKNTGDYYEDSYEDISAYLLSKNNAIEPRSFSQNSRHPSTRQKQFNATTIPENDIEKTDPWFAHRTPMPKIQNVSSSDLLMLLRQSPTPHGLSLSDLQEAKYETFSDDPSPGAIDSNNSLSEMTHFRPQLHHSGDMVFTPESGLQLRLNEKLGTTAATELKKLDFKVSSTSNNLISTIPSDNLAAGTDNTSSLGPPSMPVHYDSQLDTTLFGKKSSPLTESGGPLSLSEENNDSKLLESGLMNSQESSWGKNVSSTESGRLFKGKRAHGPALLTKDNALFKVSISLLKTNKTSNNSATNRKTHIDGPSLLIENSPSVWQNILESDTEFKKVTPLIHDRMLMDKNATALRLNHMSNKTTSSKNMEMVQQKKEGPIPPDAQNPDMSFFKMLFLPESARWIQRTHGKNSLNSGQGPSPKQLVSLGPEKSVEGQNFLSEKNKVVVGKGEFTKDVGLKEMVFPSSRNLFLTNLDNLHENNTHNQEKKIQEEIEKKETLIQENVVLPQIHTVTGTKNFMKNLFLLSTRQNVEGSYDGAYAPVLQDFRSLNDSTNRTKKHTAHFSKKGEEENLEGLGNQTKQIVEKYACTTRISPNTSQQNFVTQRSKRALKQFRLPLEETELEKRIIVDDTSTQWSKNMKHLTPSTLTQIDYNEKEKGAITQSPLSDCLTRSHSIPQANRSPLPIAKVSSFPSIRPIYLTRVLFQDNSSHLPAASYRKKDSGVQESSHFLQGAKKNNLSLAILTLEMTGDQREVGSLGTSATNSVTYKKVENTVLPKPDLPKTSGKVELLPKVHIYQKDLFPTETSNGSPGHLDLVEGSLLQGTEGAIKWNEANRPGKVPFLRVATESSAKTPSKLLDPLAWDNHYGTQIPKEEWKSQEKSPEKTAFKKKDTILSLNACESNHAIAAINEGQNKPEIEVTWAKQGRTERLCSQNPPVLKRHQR
Sequence of binding of FVIII to VWF (P00451 1668-2351 limits assumed): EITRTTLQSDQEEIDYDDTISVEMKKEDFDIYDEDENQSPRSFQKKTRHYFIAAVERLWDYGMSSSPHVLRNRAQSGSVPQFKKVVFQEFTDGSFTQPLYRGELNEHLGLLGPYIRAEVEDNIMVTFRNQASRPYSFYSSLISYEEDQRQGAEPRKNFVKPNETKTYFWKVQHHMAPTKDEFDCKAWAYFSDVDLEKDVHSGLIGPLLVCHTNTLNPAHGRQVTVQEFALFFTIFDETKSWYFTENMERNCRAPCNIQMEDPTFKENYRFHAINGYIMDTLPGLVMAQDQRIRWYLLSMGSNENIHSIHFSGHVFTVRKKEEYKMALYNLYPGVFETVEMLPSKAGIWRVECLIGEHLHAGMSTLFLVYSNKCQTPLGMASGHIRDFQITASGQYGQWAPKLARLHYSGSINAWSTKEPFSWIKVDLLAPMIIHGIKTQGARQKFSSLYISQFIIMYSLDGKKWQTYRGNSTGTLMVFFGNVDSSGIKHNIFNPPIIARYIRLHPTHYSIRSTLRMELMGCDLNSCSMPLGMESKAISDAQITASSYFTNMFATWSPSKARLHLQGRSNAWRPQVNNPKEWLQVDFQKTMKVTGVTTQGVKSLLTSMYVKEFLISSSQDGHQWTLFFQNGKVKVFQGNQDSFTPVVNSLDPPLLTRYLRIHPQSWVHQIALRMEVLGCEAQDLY

effect on interaction of FVIII with VWF (binding of FVIII to VWF): does not interfere
binding to CTLD(4-7)-Fc [1]: specific binding
Substance: mannan
inhibition of FVIII-induced activation of D9E9 cells ([2]; DCs preincubated with mannan (1 mg/ml), FIG. 4b (B)): up to 84%
activation of D9E9 cells by autologous B cells pulsed with FVIII, LE2E9 ([2]; in presence of mannan, FIG. 4b (C)): does not prevent activation
proliferation of T cells (autologous CD4+ T cells): levels comparable to those of negative controls
further reduction of internalization of EndoF1-treated FVIII ([3]; in the presence of mannan, results not shown): 32%
inhibition of the internalization of FVIII-BDD ([3]; with mannan (1 mg/ml), without deglycosylation, FIG. 8): 45±7%
